Source: patent US10800804B2, “Hybrid galactoside inhibitor of galectins” (GALECTO BIOTECH AB, priority 2014, dated 2020)
pKd: −log10 of the molar value.

How the values were obtained:
[1] = biological target: Galectin-1 (Homo sapiens (Human), UniProt P09382); assay: Fluorescence anisotropy assay, compound as inhibitor of galectin / fluorescein tagged saccharide probe interaction; format: binding
Description: (§1) 100 nM albumin was included as a carrier to prevent protein loss at such low concentration of galectin.

[2] = biological target: Galectin-3 (Homo sapiens (Human), UniProt P17931); assay: Fluorescence anisotropy assay with high-affinity probe (SY), 50 nM galectin-3, 100 nM albumin; format: binding
Sequence of Galectin-3 (P17931 whole entry): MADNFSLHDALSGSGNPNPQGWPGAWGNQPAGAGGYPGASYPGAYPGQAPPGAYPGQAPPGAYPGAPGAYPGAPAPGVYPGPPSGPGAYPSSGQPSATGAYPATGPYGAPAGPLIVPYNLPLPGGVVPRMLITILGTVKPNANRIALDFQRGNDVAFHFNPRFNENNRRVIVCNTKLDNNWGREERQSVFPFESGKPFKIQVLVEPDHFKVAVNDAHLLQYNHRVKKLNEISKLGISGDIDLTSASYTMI
Description: as §1

[3] = biological target: galectins; details: all galectins; reviewed by Leffler, 2001 and Leffler et al., 2004; cited from earlier work

Sequence of Galectin-1 (P09382 whole entry): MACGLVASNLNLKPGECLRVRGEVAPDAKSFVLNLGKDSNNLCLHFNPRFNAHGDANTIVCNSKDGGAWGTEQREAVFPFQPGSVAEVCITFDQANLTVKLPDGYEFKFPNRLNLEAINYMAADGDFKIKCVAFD

Row | pKd ([1]; Experimental Section 2) | pKd ([2]; Experimental Section 2) | pKd ([1]; Experimental Section 1) | pKd ([2]; Experimental Section 1) | Structure (SMILES) | pKd [3]
1 | 7.11 | 8.52 | – | – | OCC1O[C@@H](SC2O[C@H](CO)C(O)C(n3cc(-c4ccc(F)c(F)c4)nn3)[C@H]2O)C(O)[C@@H](n2cc(-c3ccc(F)c(F)c3)nn2)[C@H]1O (stereo partly drawn) [Example 3a, 3,3′-dideoxy-3,3′-di-[4-(3,4-difluorophenyl)-1H-1,2,3-triazol-1-yl]-1,1′-sulfanediyl-di-β-D-galactopyranoside] | –
2 | 7.10 | 9.00 | – | – | OCC1O[C@@H](SC2O[C@H](CO)C(O)C(n3cc(-c4cc(F)c(F)c(F)c4)nn3)[C@H]2O)C(O)[C@@H](n2cc(-c3cc(F)c(F)c(F)c3)nn2)[C@H]1O (stereo partly drawn) [Example 3b, 3,3′-bisdeoxy-3,3′-bis-[4-(3,4,5-trifluorophenyl)-1H-1,2,3-triazol-1-yl]-1,1′-sulfanediyl-di-β-D-galactopyranoside] | –
3 | 6.96 | 8.70 | – | – | OCC1O[C@@H](SC2O[C@H](CO)C(O)C(n3cc(-c4cc(F)cc(F)c4)nn3)[C@H]2O)C(O)[C@@H](n2cc(-c3cc(F)cc(F)c3)nn2)[C@H]1O (stereo partly drawn) [Example 3c, 3,3′-bisdeoxy-3,3′-bis-[4-(3,5-difluorophenyl)-1H-1,2,3-triazol-1-yl]-1,1′-sulfanediyldi-β-D-galactopyranoside] | –
4 | – | – | 6.49 | 7.55 | O=c1oc2ccc(F)c(F)c2cc1COC1C(O)[C@@H](CO)OC(S[C@@H]2OC(CO)[C@H](O)[C@H](n3cc(-c4cccc(F)c4)nn3)C2O)[C@@H]1O (stereo partly drawn) [Example S8a, 3′-Deoxy-3-O-[(5,6-difluoro-2-oxo-3-chromenyl)methyl]-3′-[4-(3-fluorophenyl)-1H-1,2,3-triazol-1-yl]-1,1′-sulfanediyl-di-β-D-galactopyranoside] | –
5 | – | – | 6.32 | 8.70 | O=c1oc2ccc(F)c(F)c2cc1COC1C(O)[C@@H](CO)OC(S[C@@H]2OC(CO)[C@H](O)[C@H](n3cc(-c4cc(F)c(F)c(F)c4)nn3)C2O)[C@@H]1O (stereo partly drawn) [Example S8b, 3′-Deoxy-3-O-[(5,6-difluoro-2-oxo-3-chromenyl)methyl]-3′-[4-(3,4,5-trifluorophenyl)-1H-1,2,3-triazol-1-yl]-1,1′-sulfanediyl-di-β-D-galactopyranoside] | –
6 | – | – | 5.92 | 7.14 | CCCCNC(=O)c1cn([C@@H]2C(O)[C@H](SC3O[C@H](CO)C(O)C(OCc4cc5c(F)c(F)ccc5oc4=O)[C@H]3O)OC(CO)[C@@H]2O)nn1 (stereo partly drawn) [Example S8c, 3′-{4-[(Butylamino)carbonyl]-1H-1,2,3-triazol-1-yl}-3′deoxy-3-O-[(5,6-difluoro-2-oxo-3-chromenyl)methyl]-1,1′-sulfanediyl-di-β-D-galactopyranoside] | –
7 | – | – | 7.11 | 9.00 | CCCCNC(=O)c1cn(C2C(O)[C@@H](CO)OC(S[C@@H]3OC(CO)[C@H](O)[C@H](n4cc(-c5cc(F)c(F)c(F)c5)nn4)C3O)[C@@H]2O)nn1 (stereo partly drawn) [Example S11, 3-{4-[(Butylamino)carbonyl]-1H-1,2,3-triazol-1-yl}-3,3′-dideoxy-3′-[4-(3,4,5-trifluorophenyl)-1H-1,2,3-triazol-1-yl]-1,1′-sulfanediyl-di-β-D-galactopyranoside] | –
8 | – | – | 7.05 | 8.15 | COc1c(F)c(F)c(C(=O)NC2C(O)C(CO)OC(SC3OC(CO)C(O)C(n4cc(-c5cccc(F)c5)nn4)C3O)C2O)c(F)c1F [Example S16, 3,3′-Dideoxy-3′-[4-(3-fluorophenyl)-1H-1,2,3-triazol-1-yl]-3-(4-methoxy-2,3,5,6-tetrafluoro-benzamido)-1′-sulfanediyl-di-β-D-galactopyranoside] | –
9 | – | – | 7.18 | 8.52 | OCC1O[C@@H](SC2O[C@H](CO)C(O)C(n3cc(-c4ccccc4)nn3)[C@H]2O)C(O)[C@@H](n2cc(-c3cc(F)c(F)c(F)c3)nn2)[C@H]1O (stereo partly drawn) [Example S21, 3,3′-Dideoxy-3-[4-(3,4,5-trifluorophenyl)-1H-1,2,3-triazol-1-yl]-3′-[4-phenyl-1H-1,2,3-triazol-1-yl]-1,1′-sulfanediyl-di-β-D-galactopyranoside] | –
10 | – | – | – | – | OC[C@H]1O[C@@H](O[C@H]2[C@H](O)[C@@H](O)C(O)O[C@@H]2CO)[C@H](O)[C@@H](O)[C@H]1O (some centres unmarked) [lactose] | 3.00 to 3.30

Row | Structure (SMILES) | pKd ([1]; Experimental Section 2) | pKd ([2]; Experimental Section 2) | pKd ([1]; Experimental Section 1) | pKd ([2]; Experimental Section 1) | pKd [3]
11 | O=C(NC1C(O)C(CO)OC(SC2OC(CO)C(O)C(n3cc(-c4cccc(F)c4)nn3)C2O)C1O)c1c2ccccc2cc2ccccc12 [Example S20a, 3-(9-anthracenecarboxamide)-3,3′-Dideoxy-3-[4-(3-fluorophenyl)-1H-1,2,3-triazol-1-yl]-1,1′-sulfanediyl-di-β-D-galactopyranoside] | – | – | 6.42 | 7.19 | –
12 | O=C(NC1C(O)C(CO)OC(SC2OC(CO)C(O)C(n3cc(-c4cccc(F)c4)nn3)C2O)C1O)c1ccc2cc3ccccc3cc2c1 [Example S20b, 3-(2-anthracenecarboxamide)-3,3′-Dideoxy-3-[4-(3-fluorophenyl)-1H-1,2,3-triazol-1-yl]-1,1′-sulfanediyl-di-β-D-galactopyranoside] | – | – | 6.31 | 6.85 | –
